{"source": "patent US12721905B2", "about": "“Combination of anti-HER2 antibody-drug conjugate and PARP1 selective inhibitor” (AstraZeneca UK Limited, priority 2020, dated 2026)", "key": {"[1]": {"tested_on": "BRCA2 (−/−) DLD1 cells", "assay": "PARP proliferation assay (4 day compound dosing), BRCA2 (-/-) DLD1", "assay_type": "cell-based", "conditions": "Homo sapiens, DLD-1, 96 h, read-out: BRCA2 −/− DLD-1 prolif 4 d IC50"}, "[2]": {"tested_on": "DLD1 cells", "assay": "PARP proliferation assay (4 day compound dosing), WT DLD1", "assay_type": "cell-based", "conditions": "Homo sapiens, DLD-1, 96 h, read-out: WT DLD-1 prolif 4 d IC50"}, "[3]": {"molecular_target": "T1, Recombinant full length PARP2 protein (Homo sapiens, UniProt Q9UGN5)", "T1 construct": "Recombinant full length PARP2 protein", "T1 sequence (Q9UGN5 whole entry)": "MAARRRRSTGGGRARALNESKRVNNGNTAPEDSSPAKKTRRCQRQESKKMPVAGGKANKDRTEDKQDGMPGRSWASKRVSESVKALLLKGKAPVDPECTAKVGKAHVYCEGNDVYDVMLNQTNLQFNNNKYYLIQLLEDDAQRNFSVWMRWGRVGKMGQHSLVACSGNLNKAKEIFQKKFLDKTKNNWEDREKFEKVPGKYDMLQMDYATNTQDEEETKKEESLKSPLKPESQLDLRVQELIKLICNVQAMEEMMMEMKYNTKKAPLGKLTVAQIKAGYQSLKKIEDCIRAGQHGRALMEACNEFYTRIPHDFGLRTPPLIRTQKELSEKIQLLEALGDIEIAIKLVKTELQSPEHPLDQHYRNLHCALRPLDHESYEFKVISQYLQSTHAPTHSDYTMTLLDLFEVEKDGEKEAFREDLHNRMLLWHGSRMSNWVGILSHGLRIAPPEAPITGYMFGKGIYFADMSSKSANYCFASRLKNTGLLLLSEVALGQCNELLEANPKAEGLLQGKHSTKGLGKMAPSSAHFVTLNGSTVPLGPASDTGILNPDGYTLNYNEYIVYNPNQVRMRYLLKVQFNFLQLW", "assay": "PARP fluorescence anisotropy binding assay, PARP2"}, "[4]": {"tested_on": "NCI-N87 xenograft", "assay": "Antitumor test in vivo, NCI-N87 xenograft (Example 5)", "parameters": "species or system Female Nude mice", "conditions": "AZD5305 1 mg/kg PO QD for 28 days"}, "[5]": {"tested_on": "5637", "assay": "High-throughput combination screen, 7-day CellTiter-Glo cell viability (Example 6), 5637", "assay_type": "cell-based", "conditions": "AZD5305 as single agent, HER2 mutant cell line 5637", "protocol": "Combination activity was assessed based on a combination of the ΔEmax and Loewe synergy scores.\nFIGS. 18A and 19A show matrices of measured cell viability signals. […] Values in the box represent the ratio of cells treated with drug A+B compared to DMSO control at day 7. All values are normalised to cell viability values at day 0. Values between 0 and 100 represent % growth inhibition and values above 100 represent cell death.\nFIGS. 18B and 19B show Loewe excess matrices. Values in the box represent excess values calculated by the Loewe additivity model.\nFIGS. 18C and 19C show HSA excess matrices. Values in the box represent excess values calculated by the HSA (Highest Single Agent) model."}}, "note": "pIC50: −log10 of the molar value."}
{"smiles": "CCc1cc2ncc(CN3CCN(c4ccc(C(=O)NC)nc4)CC3)cc2[nH]c1=O", "note": "[Example 4]", "values": [{"measurement": "pIC50", "setting": "[1]", "value": "< 7.77"}]}
{"smiles": "CCc1cc2ncc(CN3CCN(c4ccc(C(=O)NC)nc4C(F)(F)F)CC3)cc2[nH]c1=O", "note": "[Example 30]", "values": [{"measurement": "pIC50", "setting": "[1]", "value": 8.40}, {"measurement": "pIC50", "setting": "[2]", "value": "< 4.52"}]}
{"smiles": "CCc1cc2ncc(CN3CCN(c4ccc(C(=O)NC)nc4C)CC3)cc2[nH]c1=O", "note": "[Example 31]", "values": [{"measurement": "pIC50", "setting": "[3]", "value": 5.52}]}
{"smiles": "CCc1cc2ncc(CN3CCN(c4ccc(C(=O)NC)nc4)CC3)cc2[nH]c1=O", "note": "[Synthesis Example 4, 5-[4-[(7-ethyl-6-oxo-5H-1,5-naphthyridin-3-yl)methyl]piperazin-1-yl]-N-methyl-pyridine-2-carboxamide]", "values": [{"measurement": "TGI % day 41", "setting": "[4]", "value": 40, "unit": "%"}, {"measurement": "single agent activity", "setting": "[5]", "value": "not active"}]}
